For series [1], the system named is E. coli cells producing F4 fimbriae. Kind of series: Example 4.1: E. coli agglutination test. The class given is cell-based. The conditions noted are these: concentrations identical to Example 3.1; OD450 1.5 cells, 5 μL + 5 μL on glass plate. The procedure: The effect of three different compositions on E. coli agglutination were tested: (i) lactic acid and acetic acid, (ii) tannic acid, (iii) lactic acid, acetic acid and tannic acid.
A recombinant E. coli strain constitutively expressing F4 fimbriae was washed three times with 0.9% sodium chloride, and cells corresponding to an optical density (OD450) of 1.5 were resuspended in 50 μL of 0.9% sodium chloride.
5 μL of the cell suspension was mixed with 5 μL of either (i) lactic acid and acetic acid, (ii) tannic acid or (iii) lactic acid, acetic acid and tannic acid on the surface of a glass plate.
The concentration of each of these components were identical to those delivered to the pigs in Example 3.1.

The nature of series [2]: Solubility in concentrated stock solution. The class given is physicochemical. Conditions: concentrated stock solution / acidic solutions. The text has this: A concentrated stock solution is required to facilitate administration through drinking water.
Series [3] is described as follows: Example 1.3: feeding experiments, TLA composition via drinking water, feed free from medical zinc, weight gain and diarrhoea. It is filed as in vivo, piglets (day-one weaned). The conditions noted are these: comparison of AWG ratio with Example 1.2, light diarrhoea environment. The procedure: In Example 1.3, a composition comprising [COMPOUND LEFT OUT] lactic acid, [COMPOUND LEFT OUT] acetic acid and tannic acid was administered to piglets in combination with a feed free from medical zinc.
A batch solution was prepared using [COMPOUND LEFT OUT] lactic acid (80% lactic acid, Frederiksen, DK); acetic acid (5%, Organic Vinegar, Netto, DK) and tannic acid (Sigma) corresponding to a content of 10% Tannic acid, 69% lactic acid and 1.4% acetic acid. This composition is hereafter named TLA stock (tannic acid, lactic acid and acetic acid stock).
Two independent one-week feeding experiments were carried out with day-one weaned piglets (Example 1.3.1 and 1.3.2).
The concentrated TLA stock feed additive was prepared and used to mix with the standard setup for drinking water used by the weaned pigs at the farm. The dry feed is as described above.
The feed received by both the test and control groups was free from medical zinc. In each experiment, two test groups were administered the TLA composition in drinking water while two control groups received standard tap water. The total weight of all piglets in each group was measured at the initiation of the experiment (Day 0, “Start total weight”) and after one (Day 7) and two weeks (Day 14) as indicated (“End total weight”). […]
Following one-week administration, the total weight gain of each group was monitored. […]

Regarding `O=C(OC[C@H]1O[C@@H](OC(=O)c2cc(O)c(O)c(OC(=O)c3cc(O)c(O)c(O)c3)c2)[C@H](OC(=O)c2cc(O)c(O)c(OC(=O)c3cc(O)c(O)c(O)c3)c2)[C@@H](OC(=O)c2cc(O)c(O)c(OC(=O)c3cc(O)c(O)c(O)c3)c2)[C@@H]1OC(=O)c1cc(O)c(O)c(OC(=O)c2cc(O)c(O)c(O)c2)c1)c1cc(O)c(O)c(OC(=O)c2cc(O)c(O)c(O)c2)c1` [tannic acid, 1,2,3,4,6-penta-O-{3,4-dihydroxy-5-[(3,4,5-trihydroxybenzoyl)oxy]benzoyl}-D-glucopyranose], the E. coli agglutination result in series [1] is on record as “does not show any significant aggregation of the cells”. Also, the Solubility result in series [2] is reported as “high solubility in acidic solutions”. Besides, the “Contribution of tannic acid to weight increase” value in series [3] is “additional effect of tannic acid in the increase in weight”.

As to albumin-tannate [reference compound], in series [2], the Solubility entry is on record as “problems with solubility, resulting in non-homogeneous solutions comprising a precipitate”.

The values are drawn from patent publication US20260325469A1, “COMPOSITION FOR ANIMALS” (priority 2023, published 2026).
